Some test systems named below: SF-268; SNB-75; UACC-62; SN12C; HCT-15; 786-0; NCI-H23; Malme-3M; MDA-MB-231; UO-31; NCI-H460; MDA-N; CAKI-1; SK-MEL-5; U-251; TK-10; MOLT-4; RXF 393; SF-539; LOX IMVI.
Assay in all cases: DTP human tumour cell line panel, 48 h

Each structure is given as a SMILES string.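 Briefly, cells in 96-well plates were exposed to five compound concentrations for 48 h, and endpoints were estimated by linear interpolation. The concentration for 50% growth inhibition is given as GI50.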 Calls of active or inactive are those of the source. Cut-off read from the data, not from the text of the source: active = GI50 up to about 1.1 µM and inactive = higher.

Regarding `Nc1ccc2c(c1)C(=O)N1CCC[C@H]1C(=O)N2`, the GI50 in the test with SF-268 is > 100 µM (inactive); with SNB-75 it was > 100 µM (inactive); with UACC-62 it was > 100 µM (inactive); in the test with SN12C, > 100 µM (inactive); with HCT-15, above 100 µM; in the test with 786-0 it was > 100 µM (inactive). For the same compound, the GI50 in the test on NCI-H23, in the test with Malme-3M, in the test on MDA-MB-231, with UO-31, in the test on NCI-H460 and in the test on MDA-N was > 100 µM (inactive) throughout. Moreover, the GI50 in the test on CAKI-1, in the test with SK-MEL-5, in the test with U-251, with TK-10, with MOLT-4 and with RXF 393 was > 100 µM (inactive) in each case. Besides, the GI50 in the test with SF-539 and with LOX IMVI was > 100 µM (inactive) each time.

Consider `COC(=O)c1ccccc1C1CN=NC12Cc1ccc3c(c1C2=O)CCC3` (stereo not given), for which the GI50 in the test on SF-268 was 27.6 µM (inactive); in the test on SNB-75 it was 58.6 µM (inactive); in the test with UACC-62, > 100 µM (inactive); with SN12C, > 100 µM (inactive); in the test on HCT-15 it was above 100 µM; in the test with 786-0 it was 43.4 µM (inactive). Moreover, the GI50 in the test on NCI-H23 was 19.2 µM (inactive); with Malme-3M, 21.8 µM (inactive); in the test on MDA-MB-231, 75.5 µM (inactive); in the test with UO-31 it was 68.5 µM (inactive); in the test with NCI-H460 it was 70 µM (inactive); in the test on MDA-N, > 100 µM (inactive). For the same compound, the GI50 with CAKI-1 was > 100 µM (inactive); with SK-MEL-5, 17.4 µM (inactive); with U-251, 49.1 µM (inactive); in the test with TK-10, > 100 µM (inactive); with MOLT-4 it was 12.6 µM (inactive); with RXF 393 it was 67.9 µM (inactive). In addition, the figures for the GI50 in the test on SF-539 and with LOX IMVI were > 100 µM (inactive) and 9.04 µM (inactive), respectively.

For `Cc1cccc(-c2cc(O)c3cc(C)cnc3n2)c1`, the GI50 is 0.724 µM (active) in the test with SF-268; 0.157 µM (active) with SNB-75; 0.331 µM (active) in the test with UACC-62; 0.571 µM (active) with SN12C; 0.183 µM with HCT-15; 0.361 µM (active) in the test with 786-0. For the same compound, the GI50 was 0.344 µM (active) in the test on NCI-H23; 0.111 µM (active) in the test with Malme-3M; 0.518 µM (active) in the test with MDA-MB-231; 0.745 µM (active) in the test with UO-31; 0.311 µM (active) in the test with NCI-H460; 0.0194 µM (active) with MDA-N. Besides, the GI50 with CAKI-1 was 0.199 µM (active); in the test with SK-MEL-5 it was 0.12 µM (active); in the test with U-251, 0.147 µM (active); in the test with TK-10 it was 5.52 µM (inactive); with MOLT-4, 0.244 µM (active); with RXF 393, 0.229 µM (active). Moreover, the values for the GI50 with SF-539 and in the test with LOX IMVI were 0.213 µM (active) and 0.478 µM (active), respectively.

As to `CN(C)CCCC1c2ccccc2Oc2ccc(C(F)(F)F)cc21` (stereo not given), the GI50 in the test with SF-268 was 14.3 µM (inactive); in the test with SNB-75, 14.3 µM (inactive); in the test on UACC-62, 9.42 µM (inactive); in the test on SN12C it was 13.5 µM (inactive); in the test on HCT-15 it was 16.1 µM; in the test with 786-0, 12.4 µM (inactive). Also, the GI50 was 16 µM (inactive) in the test with NCI-H23; 2.79 µM (inactive) with Malme-3M; 12.8 µM (inactive) with MDA-MB-231; 1.82 µM (inactive) in the test on UO-31; 15 µM (inactive) in the test with NCI-H460; 4.02 µM (inactive) in the test with MDA-N. The GI50 was 12.9 µM (inactive) in the test with CAKI-1; 7.45 µM (inactive) in the test with SK-MEL-5; 11.4 µM (inactive) in the test on U-251; 15.6 µM (inactive) with TK-10; 6.64 µM (inactive) in the test with MOLT-4; 7.19 µM (inactive) in the test with RXF 393. The GI50 with SF-539 was 13.3 µM (inactive); with LOX IMVI it was 15.6 µM (inactive).

As for `O=C(c1cc(Cl)cc(Cl)c1)N(C(=O)N1CCN(c2ccccc2)CC1)c1ccccc1`, the GI50 with SF-268 is 43.1 µM (inactive); with SNB-75, > 100 µM (inactive); in the test on UACC-62, 24.9 µM (inactive); with SN12C, 55.6 µM (inactive); in the test with HCT-15, 17 µM; in the test on 786-0, 43.1 µM (inactive). In addition, the GI50 in the test on NCI-H23 was 41.1 µM (inactive); with Malme-3M, 47 µM (inactive); with MDA-MB-231, 52.1 µM (inactive); in the test on UO-31, 18.7 µM (inactive); in the test on NCI-H460, 29.7 µM (inactive); in the test on MDA-N, 12.7 µM (inactive). The GI50 in the test with CAKI-1 is 33.1 µM (inactive); in the test on SK-MEL-5 it was 21.6 µM (inactive); with U-251 it was 39.7 µM (inactive); in the test with TK-10, 54.6 µM (inactive); with MOLT-4, 20.1 µM (inactive); with RXF 393 it was 37 µM (inactive). Besides, the GI50 is 41 µM (inactive) in the test with SF-539 and 36.5 µM (inactive) in the test on LOX IMVI.

Turning to `N#Cc1c(-c2ccc(Cl)cc2)c2c([nH]c1=O)-c1ccccc1SC2`, the GI50 in the test with SF-268 is 41.9 µM (inactive); in the test with SNB-75, 27.5 µM (inactive); in the test on UACC-62, 32.7 µM (inactive); in the test with SN12C, 54.3 µM (inactive); in the test with HCT-15, 70.6 µM; in the test on 786-0 it was 39.8 µM (inactive). For the same compound, the GI50 with NCI-H23 is 93.3 µM (inactive); in the test with Malme-3M it was 33.1 µM (inactive); in the test with MDA-MB-231, 29.1 µM (inactive); with UO-31, 56.9 µM (inactive); in the test with NCI-H460 it was 46.3 µM (inactive); with MDA-N it was 77.6 µM (inactive). The GI50 in the test with CAKI-1 was 47.2 µM (inactive); in the test on SK-MEL-5 it was > 100 µM (inactive); with U-251 it was 25.6 µM (inactive); in the test on TK-10 it was 16.2 µM (inactive); in the test with MOLT-4, 27.4 µM (inactive); in the test with RXF 393, 25.2 µM (inactive). Also, the GI50 with SF-539 was 25.6 µM (inactive); in the test on LOX IMVI it was 22 µM (inactive).

As for `O=C(C(=O)n1ccc2ccccc21)c1c[nH]c2ccccc12`, the GI50 in the test on SF-268 was > 10 µM (inactive); in the test with SNB-75, > 10 µM (inactive); with UACC-62, > 10 µM (inactive); with SN12C, > 10 µM (inactive); with HCT-15 it was above 10 µM; with 786-0, > 10 µM (inactive). Moreover, the GI50 with NCI-H23, in the test on Malme-3M, with MDA-MB-231, in the test on UO-31, with NCI-H460 and in the test on MDA-N was > 10 µM (inactive) in each case. Moreover, the GI50 with CAKI-1, with SK-MEL-5, in the test on U-251, with TK-10, in the test with MOLT-4 and in the test with RXF 393 was > 10 µM (inactive) each time. Also, the GI50 in the test with SF-539 and in the test with LOX IMVI was > 10 µM (inactive) each time.

In the case of `CCn1c(SCc2nnc(Nc3ccccc3)s2)nc2ccccc2c1=O`, the GI50 with SF-268 was 3.98 µM (inactive); in the test on SNB-75 it was 3.85 µM (inactive); in the test with UACC-62, 3.3 µM (inactive); with SN12C it was 4.23 µM (inactive); in the test on HCT-15, 20.7 µM; in the test on 786-0 it was 2.02 µM (inactive). Also, the GI50 with NCI-H23 is 4.7 µM (inactive); in the test on Malme-3M it was 1.46 µM (inactive); in the test on MDA-MB-231, 3.18 µM (inactive); in the test on UO-31, 3.08 µM (inactive); in the test on NCI-H460, 1.45 µM (inactive); in the test on MDA-N it was 8.77 µM (inactive). The GI50 is 3.04 µM (inactive) with CAKI-1; 8.15 µM (inactive) in the test with SK-MEL-5; 2.24 µM (inactive) in the test on U-251; 3.45 µM (inactive) with TK-10; 42.6 µM (inactive) in the test on MOLT-4; 4.04 µM (inactive) with RXF 393. Also, the GI50 is 3.27 µM (inactive) in the test on SF-539 and 5.02 µM (inactive) in the test on LOX IMVI.

In the case of `CCOC(=O)CCC(NC(=O)Cc1ccc(Nc2nc3ccccc3nc2-c2ccccc2)cc1)C(=O)OCC` (stereo not given), the GI50 with SF-268 was 5.26 µM (inactive); in the test on SNB-75, 8.79 µM (inactive); in the test on UACC-62, 50.4 µM (inactive); in the test on SN12C, > 100 µM (inactive); in the test on HCT-15 it was above 100 µM; in the test on 786-0, 7.83 µM (inactive). Further, the GI50 is 20.7 µM (inactive) with NCI-H23; 33 µM (inactive) in the test with Malme-3M; 16.9 µM (inactive) with MDA-MB-231; > 100 µM (inactive) with UO-31; > 100 µM (inactive) with NCI-H460; > 100 µM (inactive) in the test on MDA-N. Also, the GI50 in the test on CAKI-1 was > 100 µM (inactive); in the test on SK-MEL-5, > 100 µM (inactive); with U-251, 15.1 µM (inactive); in the test on TK-10, 14 µM (inactive); with MOLT-4, > 100 µM (inactive); in the test on RXF 393 it was 10.3 µM (inactive). For the same compound, the GI50 is 20 µM (inactive) with SF-539 and > 100 µM (inactive) in the test with LOX IMVI.

By GI50 is commonly meant the concentration at which growth is held to half of that of the control.

Source of the values: ChEMBL document CHEMBL1201862, “PubChem BioAssay data set” (2004).
